Assays:
A549 = experiment: Antiproliferative activity against human A549 cells after 48 hrs by MTT assay; type: functional; conditions: A549, 48 h
MDA-MB-231 = experiment: Antiproliferative activity against human MDA-MB-231 cells after 48 hrs by MTT assay; type: functional; conditions: MDA-MB-231, 48 h
[1] = Antiproliferative activity against human PC3 cells after 48 hrs by MTT assay; type: functional; conditions: PC-3, 48 h
HeLa = experiment: Antiproliferative activity against human HeLa cells after 48 hrs by MTT assay; type: functional
[2] = Antiproliferative activity against human Bel7402 cells after 48 hrs by MTT assay; type: functional; conditions: Bel-7402, 48 h
Tubulin = experiment: Inhibition of tubulin polymerization (unknown origin) by fluorescence analysis; type: protein-complex assay, Homo sapiens

COc1ccc(/C=C2\Cc3c(cc(OC)c(OC)c3OC)C2=O)cc1OC
GI50 (A549): 9.74 µM
GI50 (MDA-MB-231): 9.85 µM
GI50 [1]: 7.47 µM
GI50 (HeLa): 8.56 µM
GI50 [2]: 10.5 µM

COc1ccc(/C=C2\Cc3cc(OC)c(OC)c(OC)c3C2=O)cc1
GI50 (A549): > 10 µM
GI50 (MDA-MB-231): > 10 µM
GI50 [1]: > 10 µM
GI50 (HeLa): > 10 µM
GI50 [2]: > 10 µM

COc1ccc(/C=C2\Cc3cc(OC)c(OC)c(OC)c3C2=O)cc1O
GI50 (A549): > 10 µM
GI50 (MDA-MB-231): > 10 µM
GI50 [1]: > 10 µM
GI50 (HeLa): > 10 µM
GI50 [2]: > 10 µM

COc1ccc(/C=C2\Cc3c(cc(OC)c(OC)c3OC)C2=O)cc1F
GI50 (A549): 0.298 µM
GI50 (MDA-MB-231): 0.521 µM
IC50 (Tubulin): 8.92 µM
GI50 [1]: 0.277 µM
GI50 (HeLa): 0.258 µM
GI50 [2]: 0.491 µM

COc1cc2c(cc1O)C(=O)/C(=C/c1ccc(OC)c(OC)c1OC)C2
GI50 (A549): 3.42 µM
GI50 (MDA-MB-231): 2.41 µM
GI50 [1]: 3.14 µM
GI50 (HeLa): 1.59 µM
GI50 [2]: 9.65 µM

COc1ccc(/C=C2\Cc3cc(OC)c(OC)c(OC)c3C2=O)cc1[N+](=O)[O-]
GI50 (A549): > 10 µM
GI50 (MDA-MB-231): > 10 µM
GI50 [1]: > 10 µM
GI50 (HeLa): > 10 µM
GI50 [2]: > 10 µM

COc1ccc(/C=C2\Cc3c(cc(OC)c(OC)c3OC)C2=O)cc1N
GI50 (A549): 0.212 µM
GI50 (MDA-MB-231): 0.485 µM
IC50 (Tubulin): 8.64 µM
GI50 [1]: 0.456 µM
GI50 (HeLa): 0.169 µM
GI50 [2]: 0.45 µM

COc1cc(/C=C2\Cc3c(cc(OC)c(OC)c3OC)C2=O)cc(OC)c1OC
GI50 (A549): 2.79 µM
GI50 (MDA-MB-231): 5.84 µM
GI50 [1]: 4.99 µM
GI50 (HeLa): 2.37 µM
GI50 [2]: 1.58 µM

COc1ccc(/C=C2\Cc3c(cc(OC)c(OC)c3OC)C2=O)cc1
GI50 (A549): 0.273 µM
GI50 (MDA-MB-231): 0.429 µM
IC50 (Tubulin): 9.62 µM
GI50 [1]: 0.75 µM
GI50 (HeLa): 0.485 µM
GI50 [2]: 0.56 µM

COc1cc2c(cc1O)C(=O)/C(=C/c1cc(OC)c(OC)c(OC)c1)C2
GI50 (A549): > 10 µM
GI50 (MDA-MB-231): > 10 µM
GI50 [1]: > 10 µM
GI50 (HeLa): > 10 µM
GI50 [2]: > 10 µM

Reference: ChEMBL document CHEMBL3739423, “Synthesis, biological evaluation and mechanism study of a class of benzylideneindanone derivatives as novel anticancer agents” (Medchemcomm, 2015)
